Measured values reported in US8772540B2, “Thermal responsive molecule” (Kyushu University, National University Corporation, priority 2009, dated 2014).

Key:
[1] = Confirmation of formation of hydrogel (gelling when heated in water); type: physicochemical
Method: Two ml of deionized water was added to 1 mg of the compound (8), which was dissolved by ultrasonication with cooling in an ice bath. With gradually heating up to room temperature, this was statically left as such for 30 minutes.

[2] = Fluorescent spectrum: incorporation of hydrophobic environmental probe ANS-Na into hydrogel; type: physicochemical; conditions: 10 μM ANS-Na, 1 mM Eg3C8U aqueous solution
Method: Using ANS-Na (8-anilino-1-naphthalene sulfonic acid sodium salt) known as a hydrophobic environmental probe, the hydrogel was tested for incorporation of a fluorescent substance thereinto.

COCCOCCOCCOCCCCCCNC(=O)Nc1cc(NC(=O)NCCCCCCOCCOCCOCCOC)cc(NC(=O)NCCCCCCOCCOCCOCCOC)c1 [compound (8), 1,1′,1″-(benzene-1,3,5-triyl)tris{3-(2,5,8,11-tetraoxaheptadecan-17-yl)urea}]
hydrogel formation ([1]; 1 mg in 2 ml deionized water, transparent solution at 0° C., heated up to room temperature, left 30 minutes): formed a hydrogel | lowermost gelling concentration ([1]; in water, gels when heated): 0.05 wt. % | fluorescence of ANS-Na in hydrogel versus aqueous solution [2]: fluorescent intensity increased in the hydrogel and was shifted to the short wavelength side
